#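 Values below derive from 48-hour exposures of cells grown in 96-well plates, with endpoints linearly interpolated between the two concentrations bracketing the appropriate inhibition level. At the GI50, growth is halved.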 Active and inactive are the calls of the source. Cut-off read from the data, not from the text of the source: active = GI50 up to about 1.1 µM and inactive = higher.
# What was measured:
# Experiment in all cases: NCI-60 cell line screen, 48 h
# SK-MEL-5 = system: SK-MEL-5
# HCT-15 = system: HCT-15
# 786-0 = system: 786-0
# CAKI-1 = system: CAKI-1
# NCI-H460 = system: NCI-H460
# RPMI-8226 = system: RPMI-8226
# Hs-578T = system: Hs-578T
# SF-295 = system: SF-295
# K562 = system: K562
# UACC-257 = system: UACC-257
# ACHN = system: ACHN
# MDA-MB-231 = system: MDA-MB-231
# NCI/ADR-RES = system: NCI/ADR-RES
# LOX IMVI = system: LOX IMVI
# SF-268 = system: SF-268
# SNB-75 = system: SNB-75
# HL-60 = system: HL-60
# SR = system: SR
# TK-10 = system: TK-10
# NCI-H226 = system: NCI-H226
# OVCAR-4 = system: OVCAR-4
# BT-549 = system: BT-549
# KM12 = system: KM12
# SNB-19 = system: SNB-19
# U-251 = system: U-251
# IGROV-1 = system: IGROV-1
# HOP-92 = system: HOP-92
# SK-MEL-2 = system: SK-MEL-2
# A549 = system: A549
# HT-29 = system: HT-29
# NCI-H522 = system: NCI-H522
# HCC 2998 = system: HCC 2998
# HCT-116 = system: HCT-116
# EKVX = system: EKVX
# OVCAR-5 = system: OVCAR-5
# RXF 393 = system: RXF 393
# DU-145 = system: DU-145
# T47D = system: T47D
# MDA-MB-435 = system: MDA-MB-435
# OVCAR-3 = system: OVCAR-3
# OVCAR-8 = system: OVCAR-8
# PC-3 = system: PC-3
# A498 = system: A498
# MOLT-4 = system: MOLT-4
# SK-OV-3 = system: SK-OV-3
# SK-MEL-28 = system: SK-MEL-28
# CCRF-CEM = system: CCRF-CEM
# HOP-62 = system: HOP-62
# COLO 205 = system: COLO 205
# SW-620 = system: SW-620
# NCI-H23 = system: NCI-H23
# UACC-62 = system: UACC-62
# M14 = system: M14
# Malme-3M = system: Malme-3M
# UO-31 = system: UO-31
# MDA-N = system: MDA-N
# SN12C = system: SN12C
# MCF7 = system: MCF7
# SF-539 = system: SF-539
smiles,measurement,setting,value
Cc1ccc([S+]([O-])C[C@@]2(C(F)F)NC(=O)NC2=O)cc1 (some centres not stated),GI50,SK-MEL-5,> 100 µM (inactive)
same,GI50,HCT-15,> 100 µM
same,GI50,786-0,> 100 µM (inactive)
same,GI50,CAKI-1,> 100 µM (inactive)
same,GI50,NCI-H460,> 100 µM (inactive)
same,GI50,RPMI-8226,> 100 µM (inactive)
same,GI50,Hs-578T,> 100 µM (inactive)
same,GI50,SF-295,> 100 µM (inactive)
same,GI50,K562,> 100 µM (inactive)
same,GI50,UACC-257,> 100 µM (inactive)
same,GI50,ACHN,> 100 µM (inactive)
same,GI50,MDA-MB-231,> 100 µM (inactive)
same,GI50,NCI/ADR-RES,> 100 µM (inactive)
same,GI50,LOX IMVI,> 100 µM (inactive)
same,GI50,SF-268,> 100 µM (inactive)
same,GI50,SNB-75,> 100 µM (inactive)
same,GI50,HL-60,> 100 µM (inactive)
same,GI50,SR,> 100 µM (inactive)
same,GI50,TK-10,> 100 µM (inactive)
same,GI50,NCI-H226,> 100 µM (inactive)
same,GI50,OVCAR-4,> 100 µM (inactive)
same,GI50,BT-549,> 100 µM (inactive)
same,GI50,KM12,> 100 µM (inactive)
same,GI50,SNB-19,> 100 µM (inactive)
same,GI50,U-251,> 100 µM (inactive)
same,GI50,IGROV-1,> 100 µM (inactive)
same,GI50,HOP-92,> 100 µM (inactive)
same,GI50,SK-MEL-2,> 100 µM (inactive)
same,GI50,A549,> 100 µM (inactive)
same,GI50,HT-29,> 100 µM (inactive)
same,GI50,NCI-H522,> 100 µM (inactive)
same,GI50,HCC 2998,> 100 µM (inactive)
same,GI50,HCT-116,> 100 µM (inactive)
same,GI50,EKVX,> 100 µM (inactive)
same,GI50,OVCAR-5,> 100 µM (inactive)
same,GI50,RXF 393,> 100 µM (inactive)
same,GI50,DU-145,> 100 µM (inactive)
same,GI50,T47D,> 100 µM (inactive)
same,GI50,MDA-MB-435,> 100 µM (inactive)
same,GI50,OVCAR-3,> 100 µM (inactive)
same,GI50,OVCAR-8,> 100 µM (inactive)
same,GI50,PC-3,> 100 µM (inactive)
same,GI50,A498,> 100 µM (inactive)
same,GI50,MOLT-4,> 100 µM (inactive)
same,GI50,SK-OV-3,> 100 µM (inactive)
same,GI50,SK-MEL-28,> 100 µM (inactive)
same,GI50,CCRF-CEM,> 100 µM (inactive)
same,GI50,HOP-62,> 100 µM (inactive)
same,GI50,COLO 205,> 100 µM (inactive)
same,GI50,SW-620,> 100 µM (inactive)
same,GI50,NCI-H23,> 100 µM (inactive)
same,GI50,UACC-62,> 100 µM (inactive)
same,GI50,M14,> 100 µM (inactive)
same,GI50,Malme-3M,> 100 µM (inactive)
same,GI50,UO-31,> 100 µM (inactive)
CCN1CCN(c2nc3ccccc3nc2C(=O)c2ccc(OC)c(OC)c2)CC1,GI50,HCT-15,13.7 µM
same,GI50,786-0,10.7 µM (inactive)
same,GI50,CAKI-1,82.4 µM (inactive)
same,GI50,NCI-H460,6.81 µM (inactive)
same,GI50,MDA-N,25.4 µM (inactive)
same,GI50,RPMI-8226,10.1 µM (inactive)
same,GI50,SF-295,11.9 µM (inactive)
same,GI50,K562,12.6 µM (inactive)
same,GI50,UACC-257,21.9 µM (inactive)
same,GI50,ACHN,9.91 µM (inactive)
same,GI50,MDA-MB-231,14.8 µM (inactive)
same,GI50,NCI/ADR-RES,1.6 µM (inactive)
same,GI50,LOX IMVI,12.7 µM (inactive)
same,GI50,SF-268,19.3 µM (inactive)
same,GI50,SNB-75,12.9 µM (inactive)
same,GI50,HL-60,44.1 µM (inactive)
same,GI50,SR,7.06 µM (inactive)
same,GI50,TK-10,22.4 µM (inactive)
same,GI50,NCI-H226,22.3 µM (inactive)
same,GI50,OVCAR-4,10 µM (inactive)
same,GI50,BT-549,21.2 µM (inactive)
same,GI50,KM12,15.4 µM (inactive)
same,GI50,SNB-19,24 µM (inactive)
same,GI50,U-251,14.8 µM (inactive)
same,GI50,IGROV-1,16.6 µM (inactive)
same,GI50,HOP-92,7.48 µM (inactive)
same,GI50,SK-MEL-2,47.8 µM (inactive)
same,GI50,A549,13.6 µM (inactive)
same,GI50,HT-29,12.6 µM (inactive)
same,GI50,SN12C,42.1 µM (inactive)
same,GI50,NCI-H522,12 µM (inactive)
same,GI50,MCF7,18.2 µM (inactive)
same,GI50,HCC 2998,2.3 µM (inactive)
same,GI50,HCT-116,5.31 µM (inactive)
same,GI50,EKVX,19 µM (inactive)
same,GI50,OVCAR-5,41.7 µM (inactive)
same,GI50,RXF 393,12.2 µM (inactive)
same,GI50,DU-145,30.5 µM (inactive)
same,GI50,T47D,> 100 µM (inactive)
same,GI50,MDA-MB-435,25.4 µM (inactive)
same,GI50,OVCAR-3,22.2 µM (inactive)
same,GI50,OVCAR-8,12.6 µM (inactive)
same,GI50,SF-539,1.73 µM (inactive)
same,GI50,PC-3,32.7 µM (inactive)
same,GI50,A498,27.7 µM (inactive)
same,GI50,MOLT-4,5.16 µM (inactive)
same,GI50,SK-OV-3,12.1 µM (inactive)
same,GI50,SK-MEL-28,13.5 µM (inactive)
same,GI50,CCRF-CEM,10 µM (inactive)
same,GI50,HOP-62,21.4 µM (inactive)
same,GI50,COLO 205,1.5 µM (inactive)
same,GI50,SW-620,15.7 µM (inactive)
same,GI50,NCI-H23,24.3 µM (inactive)
same,GI50,UACC-62,> 100 µM (inactive)
same,GI50,M14,16.2 µM (inactive)
same,GI50,Malme-3M,16.4 µM (inactive)
same,GI50,UO-31,13.7 µM (inactive)
